From US8834841B2, “Imaging agents” (priority 2005, dated 2014)

Legend:
[1] = test system: U87 Glioma Tumor Cells Implanted SC in SCID Mice; test: tissue distribution, U87 tumor-bearing SCID mice; type: in vivo
Protocol: (§1) For the in vitro amino acid uptake studies, all cells can be grown to monolayer confluency in T-175 culture flasks [Corning, Corning, N.Y.] (approx. 1×10^8 cells/flask) in Dulbecco's Modified Eagle's Medium (DMEM) [Sigma, St. Louis, Mo.] in a humidified incubator (37° C., 5% CO2/95% air). Media are supplemented with 10% fetal calf serum [Hyclone, Logan, Utah], and antibiotics (10,000 U/ml penicillin and 10 mg/ml streptomycin) (Sigma, St. Louis, Mo.). For tissue culture passage, monolayer cells are detached by gentle trypsinization, resuspended in complete media, and split 1:10 into new T-flasks. Cultures are passaged weekly, and fed fresh media every 2 to 3 days. To initiate tumor growth in SCID mice, 1×10^6 cells are injected s.c. bilaterally into the flanks (inguinal region) of the recipient animals using a 1 ml syringe with a 27 gauge needle. Ex vivo experiments can be performed with animals containing tumors weighing between 500 mg and 1 g, as estimated by caliper measurement (tumor weight=(π/6)*abc, where a, b and c are the tumor length, width and height, respectively). The compounds of the invention are further evaluated for their tumor specificity and selectivity in tumor-bearing animal models. One can evaluate and compare the transport, accumulation and tissue distribution of each compound in these in vivo animal studies. Tissue distribution of the compounds is measured in SCID mice (average weight, 20-25 g) bearing human tumors as follows. The candidate radioligands (20 uCi in 0.4 ml 0.9% NaCl) are injected into the tail vein of tumor-bearing mice. […] Tissues (blood, heart, liver, lungs, kidneys, bone, thyroid, muscle, brain and tumor) are excised, rinsed in saline, and blotted dry. The tissues are weighed, placed into 12×75 mm glass vials, the radioactivity determined with a gamma counter, and the percent dose/gram calculated. Total activities of blood and muscle are calculated by assuming that they account for 7% and 40% of the total body mass, respectively.

[2] = test system: DU145 Prostate Tumor Cells Implanted SC in SCID Mice; test: tissue distribution, DU145 tumor-bearing SCID mice; type: in vivo
Protocol: as §1

Which results are given for `NC1(C(=O)O)CCC1[18F]` [Anti-R,S 2-[^18F]FACBC, (R,S) anti-1-amino-2-[^18F]fluorocyclobutyl-1-carboxylic acid]?
% Dose/g blood ([1]; 15 Minutes): 3.50 % Dose/g; % Dose/g bone ([1]; 15 Minutes): 2.10 % Dose/g; % Dose/g brain ([1]; 15 Minutes): 0.28 % Dose/g; % Dose/g heart ([1]; 15 Minutes): 2.59 % Dose/g; % Dose/g kidney ([1]; 15 Minutes): 9.21 % Dose/g; % Dose/g liver ([1]; 15 Minutes): 3.43 % Dose/g; % Dose/g lung ([1]; 15 Minutes): 4.08 % Dose/g; % Dose/g muscle ([1]; 15 Minutes): 1.45 % Dose/g; % Dose/g pancreas ([1]; 15 Minutes): 49.78 % Dose/g; % Dose/g spleen ([1]; 15 Minutes): 6.63 % Dose/g; % Dose/g tumor ([1]; 15 Minutes): 6.48 % Dose/g; % Dose/g blood ([1]; 30 Minutes): 2.17 % Dose/g; % Dose/g bone ([1]; 30 Minutes): 1.66 % Dose/g; % Dose/g brain ([1]; 30 Minutes): 0.22 % Dose/g; % Dose/g heart ([1]; 30 Minutes): 2.00 % Dose/g; % Dose/g kidney ([1]; 30 Minutes): 5.08 % Dose/g; % Dose/g liver ([1]; 30 Minutes): 2.58 % Dose/g; % Dose/g lung ([1]; 30 Minutes): 2.82 % Dose/g; % Dose/g muscle ([1]; 30 Minutes): 1.12 % Dose/g; % Dose/g pancreas ([1]; 30 Minutes): 41.30 % Dose/g; % Dose/g spleen ([1]; 30 Minutes): 5.11 % Dose/g; % Dose/g tumor ([1]; 30 Minutes): 5.44 % Dose/g; % Dose/g blood ([1]; 60 Minutes): 0.81 % Dose/g; % Dose/g bone ([1]; 60 Minutes): 1.21 % Dose/g; % Dose/g brain ([1]; 60 Minutes): 0.17 % Dose/g; % Dose/g heart ([1]; 60 Minutes): 1.13 % Dose/g; % Dose/g kidney ([1]; 60 Minutes): 2.00 % Dose/g; % Dose/g liver ([1]; 60 Minutes): 1.22 % Dose/g; % Dose/g lung ([1]; 60 Minutes): 1.15 % Dose/g; % Dose/g muscle ([1]; 60 Minutes): 1.10 % Dose/g; % Dose/g pancreas ([1]; 60 Minutes): 17.78 % Dose/g; % Dose/g spleen ([1]; 60 Minutes): 3.02 % Dose/g; % Dose/g tumor ([1]; 60 Minutes): 3.61 % Dose/g; % Dose/g blood ([1]; 120 Minutes): 0.46 % Dose/g; % Dose/g bone ([1]; 120 Minutes): 1.20 % Dose/g; % Dose/g brain ([1]; 120 Minutes): 0.16 % Dose/g; % Dose/g heart ([1]; 120 Minutes): 0.89 % Dose/g; % Dose/g kidney ([1]; 120 Minutes): 1.10 % Dose/g; % Dose/g liver ([1]; 120 Minutes): 0.75 % Dose/g; % Dose/g lung ([1]; 120 Minutes): 0.64 % Dose/g; % Dose/g muscle ([1]; 120 Minutes): 0.99 % Dose/g; % Dose/g pancreas ([1]; 120 Minutes): 10.20 % Dose/g; % Dose/g spleen ([1]; 120 Minutes): 1.48 % Dose/g; % Dose/g tumor ([1]; 120 Minutes): 2.73 % Dose/g; % Dose/g blood ([2]; 15 Minutes): 2.79 % Dose/g; % Dose/g bone ([2]; 15 Minutes): 1.05 % Dose/g; % Dose/g brain ([2]; 15 Minutes): 0.16 % Dose/g; % Dose/g heart ([2]; 15 Minutes): 2.07 % Dose/g; % Dose/g kidney ([2]; 15 Minutes): 6.81 % Dose/g; % Dose/g liver ([2]; 15 Minutes): 2.32 % Dose/g; % Dose/g lung ([2]; 15 Minutes): 3.35 % Dose/g; % Dose/g muscle ([2]; 15 Minutes): 0.83 % Dose/g; % Dose/g pancreas ([2]; 15 Minutes): 29.02 % Dose/g; % Dose/g spleen ([2]; 15 Minutes): 4.37 % Dose/g; % Dose/g tumor ([2]; 15 Minutes): 2.94 % Dose/g; % Dose/g blood ([2]; 30 Minutes): 1.85 % Dose/g; % Dose/g bone ([2]; 30 Minutes): 1.62 % Dose/g; % Dose/g brain ([2]; 30 Minutes): 0.16 % Dose/g; % Dose/g heart ([2]; 30 Minutes): 1.82 % Dose/g; % Dose/g kidney ([2]; 30 Minutes): 4.47 % Dose/g; % Dose/g liver ([2]; 30 Minutes): 2.08 % Dose/g; % Dose/g lung ([2]; 30 Minutes): 2.31 % Dose/g; % Dose/g muscle ([2]; 30 Minutes): 0.99 % Dose/g; % Dose/g pancreas ([2]; 30 Minutes): 29.29 % Dose/g; % Dose/g spleen ([2]; 30 Minutes): 4.74 % Dose/g; % Dose/g tumor ([2]; 30 Minutes): 3.54 % Dose/g; % Dose/g blood ([2]; 60 Minutes): 0.80 % Dose/g; % Dose/g bone ([2]; 60 Minutes): 2.22 % Dose/g; % Dose/g brain ([2]; 60 Minutes): 0.17 % Dose/g; % Dose/g heart ([2]; 60 Minutes): 1.32 % Dose/g; % Dose/g kidney ([2]; 60 Minutes): 1.82 % Dose/g; % Dose/g liver ([2]; 60 Minutes): 1.22 % Dose/g; % Dose/g lung ([2]; 60 Minutes): 1.18 % Dose/g; % Dose/g muscle ([2]; 60 Minutes): 1.15 % Dose/g; % Dose/g pancreas ([2]; 60 Minutes): 15.00 % Dose/g; % Dose/g spleen ([2]; 60 Minutes): 2.84 % Dose/g; % Dose/g tumor ([2]; 60 Minutes): 2.56 % Dose/g; % Dose/g blood ([2]; 120 Minutes): 0.38 % Dose/g; % Dose/g bone ([2]; 120 Minutes): 0.65 % Dose/g; % Dose/g brain ([2]; 120 Minutes): 0.12 % Dose/g; % Dose/g heart ([2]; 120 Minutes): 0.82 % Dose/g; % Dose/g kidney ([2]; 120 Minutes): 0.78 % Dose/g; % Dose/g liver ([2]; 120 Minutes): 0.42 % Dose/g; % Dose/g lung ([2]; 120 Minutes): 0.45 % Dose/g; % Dose/g muscle ([2]; 120 Minutes): 0.71 % Dose/g; % Dose/g pancreas ([2]; 120 Minutes): 5.92 % Dose/g; % Dose/g spleen ([2]; 120 Minutes): 0.87 % Dose/g; % Dose/g tumor ([2]; 120 Minutes): 1.84 % Dose/g
